For one assay, the target named is T1, PDK1 (Homo sapiens, UniProt O15530).
T1 sequence (O15530 1-556): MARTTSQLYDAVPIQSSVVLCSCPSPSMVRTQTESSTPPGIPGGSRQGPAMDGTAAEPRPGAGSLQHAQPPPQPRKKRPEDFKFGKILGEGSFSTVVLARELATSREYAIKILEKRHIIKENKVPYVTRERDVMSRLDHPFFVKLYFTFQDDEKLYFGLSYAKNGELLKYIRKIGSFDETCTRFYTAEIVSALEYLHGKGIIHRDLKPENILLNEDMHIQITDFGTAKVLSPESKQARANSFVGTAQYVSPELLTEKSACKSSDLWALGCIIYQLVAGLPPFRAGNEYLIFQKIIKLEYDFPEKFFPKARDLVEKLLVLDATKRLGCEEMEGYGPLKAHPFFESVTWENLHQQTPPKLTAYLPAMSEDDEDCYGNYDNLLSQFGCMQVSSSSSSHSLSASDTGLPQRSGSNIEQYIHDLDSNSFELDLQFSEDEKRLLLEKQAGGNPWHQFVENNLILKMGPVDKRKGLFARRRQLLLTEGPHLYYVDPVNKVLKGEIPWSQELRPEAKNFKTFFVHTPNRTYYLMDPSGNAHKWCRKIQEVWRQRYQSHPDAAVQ
Briefly: Thermo Fisher "PDK1 Direct" assay (peptide Ser/Thr 07, FRET readout). Conditions: for Hill slope, PDK1 direct / IC50: 10-point titration. It is filed as biochemical.

The target in a further assay is T2, GST-PDK1_1-556 (Homo sapiens, UniProt O15530).
T2 construct: made in house; host or cells: HEK293 cells (transient transfection of pEBG2T); peptide synthesized by Pepscan
T2 sequence (O15530 1-556): T1 sequence (O15530 1-556)
Briefly: AlphaScreen biotin-PIP3 / GST-PDK1_1-556 displacement. Conditions: PIP3 20 nM, GST-PDK1 3 nM. It is filed as binding. The procedure:
The AlphaScreen® assay was performed following the general guidelines from the manufacturer (Perkin Elmer) ([29]). In short, the assay was performed in a final volume of 25 μl in white 384-well microtiter plates (Greiner) in a standard buffer containing 50 mM Tris-HCl (pH 7.4), 100 mM NaCl, 2 mM DTT, 0.01% (v/v) Tween-20 and 0.1% (w/v) BSA, with the addition of 5 μl of beads (anti-GST coated acceptor beads and streptavidin-coated donor beads; nickel chelate-coated acceptor beads and streptavidin-coated donor beads; or nickel chelate-coated acceptor beads and GSH-coated donor beads, 20 μg/ml final concentrations for each bead type). AlphaScreen assays for His-tagged proteins and GST-fusion proteins were performed using nickel chelate-coated acceptor beads and GSH-coated donor beads; alphascreen assays for His-tagged proteins and biotinylated molecules were performed using nickel chelate-coated acceptor beads and streptavidin-coated donor beads; alphascreen assays for GST-fusion proteins and biotinylated molecules were performed using anti-GST coated acceptor beads and streptavidin-coated donor beads (Perkin Elmer).
The conditions for each AlphaScreen assay were identified in cross-titration experiments for each interaction to choose the ideal pair of concentrations within the linear range of the interactions. As required, the standard conditions were modified to use less material, to increase binding of the interacting molecules, to lower background signal, and so on. His-PDK1 and GST-fusion protein in the presence or absence of the different compounds were incubated in the dark for 60 min at room temperature and the emission of light from the acceptor beads was measured in an EnVision reader (Perkin Elmer) or Spark plate reader (Tecan). AlphaScreen assays were performed at least twice, although most experiments were performed multiple times by different researchers with different batches of purified proteins with similar results.
Biotin-PIP3 interactions with GST-PDK1_1-556 or GST-PDK1_360-556 were assessed in the standard buffer. […]
Background: Bead proximity is the source of the signal in Alpha formats.

In another assay the target is T3, PDK1_1-556 (Homo sapiens, UniProt O15530).
T3 construct: effect of HYG8 on the thermal stability (ΔTm) of PDK1_1-556 (H) and PDK1_50-359 (I); His (N); made in house; host or cells: Sf9 insect cells (baculovirus)
T3 sequence (O15530 1-556): T1 sequence (O15530 1-556)
Briefly: Differential scanning fluorimetry, thermal stability of PDK1_1-556. The conditions noted are these: PDK1 1 μM. It is filed as binding.

The target in assay [1] is T4, His-PDK1_1-556 and GST-PDK1_360-556 (Homo sapiens, UniProt O15530).
T4 construct: made in house; host or cells: Sf9 insect cells (His-PDK1_1-556); HEK293 cells (GST-PDK1_360-556)
T4 sequence (O15530 1-556): T1 sequence (O15530 1-556)
As to the kind of experiment: AlphaScreen PDK1 dimerization assay His-PDK1_1-556 / GST-PDK1_360-556. It is filed as binding.

The mark [2] stands for this setting: replicate point 1, read-out: % Inhibition Point 1.
Setting [3] is: replicate point 2, read-out: % Inhibition Point 2.
Setting [4] is: single point, N=2, read-out: Inhibition at 1 μM (%).
The mark [5] stands for this setting: absence of PIFtide, read-out: IC50 (nM), displacement of His-PDK1_1-556 interaction with GST-PDK1_360-556.
Where [6] appears, read: with PIFtide, read-out: IC50 (nM), displacement of His-PDK1_1-556 interaction with GST-PDK1_360-556 with PIFtide.

Where “and” joins values, the source holds several entries; their conditions need not be identical. Equal entries are not always repeated. Where two headings read alike, the source gives them in different places.

Data on two compounds can be found in article PMC7614687, “Modulation of the substrate specificity of the kinase PDK1 by distinct conformations of the full-length protein*” (Science signaling, 2023).

For orientation: inhibition means the change of the read-out against control, counted positive when it falls. One may read the IC50 as the point on the concentration scale where inhibition reaches its midpoint.

On to `O=C(O[C@H]1[C@@H](OP(=O)(O)O)[C@H](OP(=O)(O)O)[C@@H](OP(=O)(O)O)[C@H](OP(=O)(O)O)[C@H]1OP(=O)(O)O)c1ccccc1` [HYG8, 2-O-benzoyl-IP5], for which the inhibition at 1 µM came out at 97% on PDK1 (setting [2]), 98% at PDK1 (setting [3]) and 98% at PDK1 (setting [4]). On PDK1, the “Hill slope, PDK1 direct” value stood at 1.39. Also, the results for the concentration for half-maximal inhibition (IC50) (against PDK1; in assay [1] (setting [5]); in assay [1] (setting [6])) were 24.5 nM, 33.3 nM and 19.5 nM, respectively. Further, the “displacement of PIP3 from GST-PDK1_1-556” value on GST-PDK1_1-556 was “higher potency than IP5”. The “Tm (°C), temperature stabilization of PDK1_1-556” value at PDK1_1-556 (compound 1 µM) was 11.7 °C and 11-15 °C; at PDK1_1-556 (compound 20 µM) it was 13.7 °C and 13-16 °C.
Turning to `CCCCO[C@H]1[C@@H](OP(=O)(O)O)[C@H](OP(=O)(O)O)[C@@H](OP(=O)(O)O)[C@H](OP(=O)(O)O)[C@H]1OP(=O)(O)O` [HYG14, 2-O-butyl-IP5], the inhibition at 1 µM is 98% on PDK1 (setting [2]), 101% on PDK1 (setting [3]) and 100% at PDK1 (setting [4]). The “Hill slope, PDK1 direct” value at PDK1 was 1.61. In addition, the IC50 on PDK1 worked out at 16.2 nM; in assay [1] (setting [5]), 29.6 nM; in assay [1] (setting [6]), 29.4 nM. For the same compound, the “displacement of PIP3 from GST-PDK1_1-556” value at GST-PDK1_1-556 is “almost completely displaced”. In addition, the “Tm (°C), temperature stabilization of PDK1_1-556” value at PDK1_1-556 (compound 1 µM) is 15.2 °C and 11-15 °C; on PDK1_1-556 (compound 20 µM) it was 16.5 °C and 13-16 °C.
